Drawing on PMC11530593, “Structural mechanism of human HCN1 hyperpolarization-activated channel inhibition by ivabradine” (The Journal of Biological Chemistry, 2024), this text covers IC50 for one compound.

In this experiment the target is T1, WT hHCN1 (Homo sapiens, UniProt O60741).
T1 construct: Full-length WT or mutant human HCN1 were cloned into the pcDNA3.1 vector; expressed in transfected cells; host or cells: HeLa cells, pcDNA3.1 vector, transient lipofection
T1 sequence (O60741 1-890): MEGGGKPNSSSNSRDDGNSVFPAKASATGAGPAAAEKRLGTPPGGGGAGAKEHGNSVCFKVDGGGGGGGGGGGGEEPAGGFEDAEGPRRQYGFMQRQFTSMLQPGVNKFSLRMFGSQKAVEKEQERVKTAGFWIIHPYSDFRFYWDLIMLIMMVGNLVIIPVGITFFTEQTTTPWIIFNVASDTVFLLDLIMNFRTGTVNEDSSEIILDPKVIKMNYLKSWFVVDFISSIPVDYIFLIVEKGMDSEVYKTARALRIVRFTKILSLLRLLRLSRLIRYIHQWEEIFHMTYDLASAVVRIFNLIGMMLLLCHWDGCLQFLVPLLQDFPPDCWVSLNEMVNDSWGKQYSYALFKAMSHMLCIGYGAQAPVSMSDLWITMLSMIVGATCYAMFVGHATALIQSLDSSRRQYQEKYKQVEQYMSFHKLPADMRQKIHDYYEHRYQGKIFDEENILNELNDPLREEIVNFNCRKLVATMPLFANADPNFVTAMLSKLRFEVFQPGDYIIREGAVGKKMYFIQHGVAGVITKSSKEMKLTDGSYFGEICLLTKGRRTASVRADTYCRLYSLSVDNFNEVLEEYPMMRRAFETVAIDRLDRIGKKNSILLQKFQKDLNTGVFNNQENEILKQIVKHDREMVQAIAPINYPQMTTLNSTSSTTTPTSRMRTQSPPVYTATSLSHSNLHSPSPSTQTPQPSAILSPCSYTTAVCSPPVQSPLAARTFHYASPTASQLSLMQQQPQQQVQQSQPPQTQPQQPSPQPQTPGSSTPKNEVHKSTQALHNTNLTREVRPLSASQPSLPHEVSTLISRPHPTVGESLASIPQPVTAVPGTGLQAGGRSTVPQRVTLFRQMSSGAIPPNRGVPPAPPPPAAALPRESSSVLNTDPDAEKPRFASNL
Description: Whole-cell patch-clamp, Ih inhibition in transfected HeLa cells. The experiment is classed as cell-based. The note with it: membrane potential -140 mV, read-out: half-maximal inhibitory concentration (IC50) of Ih inhibition. As to the method:
The electrophysiological characteristics of WT hHCN1 were recorded using whole-cell patch-clamp. […] Activation of the HCN1 channel occurred in response to membrane hyperpolarization.
Full-length WT or mutant human HCN1 were cloned into the pcDNA3.1 vector for electrophysiological experiments. HeLa cells (from Thermo Fisher Scientific) cultured in Dulbecco's modified Eagle's medium (from Solarbio Life Science) + 10% fetal bovine serum (from ExCell Bio) at 37 °C were transiently transfected using lipofection, and whole-cell patch-clamp recordings were obtained using the Axon 200B amplifier (Molecular Devices) and clampex software (https://www.moleculardevices.com/products/axon-patch-clamp-system/acquisition-and-analysis-software/pclamp-software-suite), 36 to 48 h posttransfection. The extracellular solution contained 110 mM NaCl, 0.5 mM MgCl2, 1.8 mM CaCl2, 5 mM Hepes, 30 mM KCl, and pH was adjusted to 7.4 with NaOH, while the pipette solution contained 130 mM KCl, 10 mM NaCl, 0.5 mM MgCl2, 1 mM EGTA, 5 mM Hepes, and pH was adjusted to 7.4 with KOH. The recordings were performed at room temperature, voltage-clamp mode, and filtered at 1 kHz. The sampling frequency was 10 kHz, and the series resistance was limited to 5 MΩ. To elicit channel currents, step pulses of 3 s duration ranging from −180 mV to −30 mV were applied, followed by a step to −180 mV lasting 1.25 s. The tail currents evoked by the second step were used to determine the voltage-dependent activation curves and calculate the midpoint of activation potential (V1/2). The half maximal inhibitory concentration (IC50) of drugs was determined by recording currents at a pulse of −140 mV and analyzing current amplitudes at varying drug concentrations. The IC50 value was calculated using the Hill equation.
A general note: In patch-clamp work, channel activity is measured electrically.

Turning to `O=C(CCCN1CCC(O)(c2ccc(Cl)cc2)CC1)c1ccc(F)cc1` [haloperidol], the IC50 stood at 33.4 µM.
